According to patent US9426950B2, “Production of Deschampsia antartica in bioreactors” (priority 2012, dated 2016):

Tests used:
D. antarctica explants [1] = assay: Effect of growth regulators on D. antarctica's morphogenic response and biomass production in bioreactors (SIT); assay type: in vivo, Deschampsia antarctica; conditions: for type of morphogenic response (roots / shoots): AIB with BAP or alone, BAP alone or ratio favoring BAP; for reproduction rate / organogenic response: SIT method (FIG. 7); for survival of explants compared with the control treatment: growth regulators in the culture medium, bioreactors (FIG. 6); for biomass production: treatments supplemented with growth regulators (FIG. 9)
Source text: In order to determine the appropriate composition of growth regulators for explant propagation and to establish the differences in the physical state of the liquid culture medium compared to the semisolid medium, a comparative study was done on the effect of growth regulators on the culture medium using the SIT method and the conventional propagation method, SSS. To determine the growth regulators' effect on D. antarctica's morphogenic response and biomass formation, a study was done on the effect of combining the cytokinin 6-benzylaminopurine (6-BAP) (0.0; 0.5; 1.0; and 3.0 mgL-1) with the auxin indolbutyric acid (AIB) (0.0; 0.1; 0.25; and 0.5 mgL^−1). Likewise, a study was done of the effect of a set concentration of gibberellic acid (3 mgL-1) combined with the auxins and cytokinins and their isolated effect in the culture medium. Gibberellic acid is associated with the elongation of tissues, and it could play a significant role in biomass growth.
For each bioreactor, 50 to 60 explants with the phenotype characteristics indicated in the osmotic agent test were used in 1000 ml of nutritive medium for each condition, keeping an initial treatment weight of 2 grams. For the SSS method, 25 explants were used in Petri dishes with 40 ml of a medium gelled with agar (Gelzan′) at a rate of 2.5 gL^−1.
A 12-hour immersion frequency was used, with immersion times of 3 minutes and aeration times of 5 minutes.
For this test, the total weight of inoculated biomass was adjusted at 2.0 g per bioreactor. Therefore, the number of plants per bioreactor varied, and the distribution of weight and size during inoculation was random. The experimental unit was the explant.
The effect of the growth regulators was evaluated with the following variables: Increase in fresh weight (FW) per treatment, increase in fresh weight/explant, reproduction rate, survival of explants, and degree of oxidation; all of the same criteria used in the test with osmotic agents.
A sample of 25 explants was taken for each treatment in order to measure the different variables.

D. antarctica explants [2] = assay: Effect of osmoregulating agents on D. antarctica explants cultivated in temporary immersion bioreactors; assay type: in vivo; conditions: glucose 5 gL−1; mannitol 5 gL−1; PEG 5 gL−1 and 20 gL−1 (FIG. 4)
D. antarctica explants [3] = assay: as above; assay type: in vivo; conditions: for fresh weight: glucose 5 gL−1 and 20 gL−1, sodium chloride 5 gL−1 (FIG. 5); for degree of oxidation (scale of Table 1): in vivo
Source text: The Deschampsia antarctica plants were reproduced in bioreactors with a liquid culture medium. The nutritive growth conditions were formulated using the inorganic salts proposed by (Murashige, 1973) (MS), supplemented with saccharose 30 gL^−1. In order to determine the conditions needed to obtain high growth and morphophysiological development rates for the tissues, an evaluation was done of the immersion frequency conditions and the addition of osmotic and growth regulating agents.
The regulation of the culture medium's hydric potential determines the quality of the morphogenic response of the plants being cultivated in vitro, especially in systems using liquid culture media (Hua et at, 2010; Stanly et al., 2010). The experiment consisted of evaluating the effect of osmoregulating agents at different concentrations [mannitol (10 and 20 gL-1), glucose (5 and 20 gL-1), polyethylene glycol (5 and 10 gL^−1), and NaCl (5, 10, and 20 gL-1)] on the morphogenic response and biomass production of D. antarctica.
In each bioreactor, 100 plants from the semisolid culture (SSS) that were more than 2 cm tall, with well-developed, expanded leaves, were inoculated in triplicate. The dead leaves and oxidized tissue that grows around the crown of the plants were removed. The bioreactors' initial volume was adjusted to 1000 ml per cultivation jar. A 12-hour immersion frequency was used, with an immersion time of 300 seconds and an aeration time of 60 minutes.
The average initial weight of the explants in each treatment was taken. The repetitions were distributed randomly in the culture trays.
The effect of the osmoregulators was evaluated with the following variables: Increase in fresh weight (FW) per treatment, increase in fresh weight per explant, multiplication rate, explant survival rate, and degree of oxidation.
To calculate survival, live explants were assigned a value of 1, while dead explants were assigned a value of 0. The data was entered into a double-entry matrix where the osmoregulator-type factor is compared to the survival variable. A scale of the explants' damage from phenolization was developed to calculate the degree of oxidation, and is described in Table 1.
The degree of oxidation was calculated using the Townsend and Neuberger formula (1943), which considers the frequency and intensity with which the explant damage occurs, using the equation:
[formula] Where: • P=weighted degree of severity of oxidation • n=number of explants for each category in the scale • v=numerical value of each category • CM=largest category • N=total number of explants in the sample
The percentage of explants oxidized in treatment was also calculated, using the equation:
[formula] Where: • % O=percentage of explants oxidized in each treatment • EO=number of oxidized explants in the sample • ET=total number of explants evaluated in the sample
To determine the average increase in fresh weight (IFW) in each treatment, the initial weight of the inoculated explants in each bioreactor was taken (including an experimental unit) and then averaged. The fresh weight data was collected at the end of each repetition in each treatment. The increase in fresh weight was calculated using the equation: IFW=FWf−FWo Equation 3 Where: • IFW=average fresh weight increase in each treatment • FWf=average final fresh weight of the biomass in each treatment • FWo=average initial fresh weight of the biomass in each treatment
To determine the average fresh weight increase per explant (IFWe) for each treatment, each explant was measured at the beginning and end of the test for each repetition, and the averages were calculated. The fresh weight increase was calculated using the equation: IFWe=FWef−FWeo Equation 4 Where: • IFWe=average fresh weight increase per explant • FWef=average final fresh weight of the biomass in each bioreactor • FWeo=average initial fresh weight of the biomass in each bioreactor. […]

Row | Structure (SMILES) | type of morphogenic response (roots / shoots) (D. antarctica explants [1]) | reproduction rate / organogenic response (D. antarctica explants [1]) | survival of explants compared with the control treatment (D. antarctica explants [1]) | biomass production (D. antarctica explants [1]) | reproduction rate (D. antarctica explants [2]) | fresh weight (D. antarctica explants [3]) | degree of oxidation (scale of Table 1) (D. antarctica explants [3]) | also measured
1 | O=C(O)CCCc1c[nH]c2ccccc12 [AIB, indolbutyric acid] | induced root formation | did not have a significant effect on the reproduction rate | Neither the addition of AIB or BAP, nor the combination of these growth regulators, significantly increased the survival | increased significantly | – | – | – | –
2 | c1ccc(CNc2ncnc3nc[nH]c23)cc1 [BAP, 6-benzylaminopurine] | induced only shoot formation or the development of aerial biomass | sufficient to induce efficient organogenic responses | Neither the addition of AIB or BAP, nor the combination of these growth regulators, significantly increased the survival | increased significantly | – | – | – | –
3 | C=C1C[C@]23C[C@@]1(O)CC[C@H]2[C@@]12C=C[C@H](O)[C@@](C)(C(=O)O1)[C@H]2[C@@H]3C(=O)O [GA3, gibberellic acid] | – | significantly reduced the reproduction rate | significantly lower than the control treatment | – | – | – | – | –
4 | O=C[C@H](O)[C@@H](O)[C@H](O)[C@H](O)CO [glucose] | – | – | – | – | greatest | increased significantly | degree 1 | survival rate (D. antarctica explants [3]; glucose at 5 gL−1, temporary immersion bioreactors): 100%; reduction of the explants' survival rate (D. antarctica explants [3]; glucose concentration increased to 20 gL-1): up to 50%; explants' growth (D. antarctica explants [3]; increased concentrations of glucose): did not significantly affect the explants' growth
5 | OC[C@@H](O)[C@@H](O)[C@H](O)[C@H](O)CO [mannitol] | – | – | – | – | statistically different from the control treatment | – | degree 1 | –
6 | [Cl-].[Na+] [sodium chloride] | – | – | – | – | – | increased significantly | – | decrease of fresh weight (D. antarctica explants [3]; increased concentration of sodium chloride (FIG. 5)): 60%; survival of the explants (D. antarctica explants [3]; three concentrations of sodium chloride studied (5, 10, 20 gL-1)): significantly affected the survival of the explants
